In ChEMBL document CHEMBL3991601, “The target landscape of clinical kinase drugs” (Science, 2017):
Active and inactive are the calls of the source.

Key:
[1] = biological target: DNA topoisomerase 2-alpha (Homo sapiens, UniProt P11388)
[2] = biological target: Receptor-interacting serine/threonine-protein kinase 3 (Homo sapiens, UniProt Q9Y572)
[3] = biological target: Cyclin-dependent kinase 17 (Homo sapiens, UniProt Q00537)
[4] = biological target: Serine/threonine-protein kinase MRCK gamma (Homo sapiens, UniProt Q6DT37)
UMP-CMP kinase = biological target: T1, UMP-CMP kinase (Homo sapiens, UniProt P30085)
T1 sequence (P30085 whole entry): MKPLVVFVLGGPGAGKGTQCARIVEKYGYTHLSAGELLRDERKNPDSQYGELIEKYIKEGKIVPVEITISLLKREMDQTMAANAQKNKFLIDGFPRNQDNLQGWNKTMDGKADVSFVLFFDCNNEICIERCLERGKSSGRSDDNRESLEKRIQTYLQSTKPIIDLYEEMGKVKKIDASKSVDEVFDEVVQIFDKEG

[5] = biological target: Serine/threonine-protein kinase MRCK alpha (Homo sapiens, UniProt Q5VT25)
[6] = biological target: T2, Thyroid hormone receptor-associated protein 3 (Homo sapiens, UniProt Q9Y2W1)
T2 sequence (Q9Y2W1 whole entry): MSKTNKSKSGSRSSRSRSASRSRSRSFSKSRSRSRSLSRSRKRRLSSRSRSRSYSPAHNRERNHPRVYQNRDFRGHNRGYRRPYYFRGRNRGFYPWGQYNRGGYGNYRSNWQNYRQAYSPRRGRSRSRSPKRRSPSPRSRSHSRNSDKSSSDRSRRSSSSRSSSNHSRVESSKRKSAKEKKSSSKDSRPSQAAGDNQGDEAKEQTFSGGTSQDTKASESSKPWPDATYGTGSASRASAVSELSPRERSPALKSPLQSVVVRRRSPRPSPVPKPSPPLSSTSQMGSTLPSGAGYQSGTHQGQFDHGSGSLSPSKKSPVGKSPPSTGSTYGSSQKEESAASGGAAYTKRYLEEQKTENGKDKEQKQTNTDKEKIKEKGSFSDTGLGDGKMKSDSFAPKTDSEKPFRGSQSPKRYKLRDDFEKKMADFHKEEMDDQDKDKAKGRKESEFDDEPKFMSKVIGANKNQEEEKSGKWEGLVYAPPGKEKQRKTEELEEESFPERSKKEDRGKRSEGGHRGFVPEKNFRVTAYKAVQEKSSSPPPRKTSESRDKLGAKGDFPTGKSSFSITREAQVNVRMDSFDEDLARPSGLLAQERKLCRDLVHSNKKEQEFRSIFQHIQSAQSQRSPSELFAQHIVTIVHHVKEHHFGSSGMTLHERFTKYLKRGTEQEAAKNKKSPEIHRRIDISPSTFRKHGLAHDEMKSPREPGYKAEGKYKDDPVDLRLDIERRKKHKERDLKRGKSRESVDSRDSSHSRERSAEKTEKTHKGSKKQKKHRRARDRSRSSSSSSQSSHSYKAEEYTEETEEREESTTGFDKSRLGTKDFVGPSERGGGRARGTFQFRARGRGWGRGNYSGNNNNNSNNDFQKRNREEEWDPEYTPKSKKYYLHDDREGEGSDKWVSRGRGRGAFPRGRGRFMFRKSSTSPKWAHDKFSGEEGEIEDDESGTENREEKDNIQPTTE

[7] = biological target: Serine/threonine-protein kinase ATR (Homo sapiens, UniProt Q13535)
[8] = biological target: U5 small nuclear ribonucleoprotein 200 kDa helicase (Homo sapiens, UniProt O75643)
[9] = biological target: T3, Dual specificity mitogen-activated protein kinase kinase 5 (Homo sapiens, UniProt Q13163)
T3 sequence (Q13163 whole entry): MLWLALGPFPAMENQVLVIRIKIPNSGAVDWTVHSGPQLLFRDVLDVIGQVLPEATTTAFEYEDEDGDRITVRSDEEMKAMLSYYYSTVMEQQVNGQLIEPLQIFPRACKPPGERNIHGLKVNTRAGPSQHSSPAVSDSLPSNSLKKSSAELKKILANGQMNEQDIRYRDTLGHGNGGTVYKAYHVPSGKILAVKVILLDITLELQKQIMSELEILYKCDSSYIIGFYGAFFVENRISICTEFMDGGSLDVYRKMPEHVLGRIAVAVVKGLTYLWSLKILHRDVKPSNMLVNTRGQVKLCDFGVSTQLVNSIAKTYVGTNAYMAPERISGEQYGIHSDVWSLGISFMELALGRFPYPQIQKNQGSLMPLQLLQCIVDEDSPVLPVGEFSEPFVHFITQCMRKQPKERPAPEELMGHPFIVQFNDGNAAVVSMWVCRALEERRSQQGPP

[10] = biological target: G protein-coupled receptor kinase 6 (Homo sapiens, UniProt P43250)
Focal adhesion kinase 1 = Focal adhesion kinase 1 (Homo sapiens, UniProt Q05397)
[11] = biological target: Serine/threonine-protein kinase 24 (Homo sapiens, UniProt Q9Y6E0)
Also: in the data inactive means no Kd found up to 30 µM.

Chain of Serine/threonine-protein kinase ATR (Q13535 whole entry): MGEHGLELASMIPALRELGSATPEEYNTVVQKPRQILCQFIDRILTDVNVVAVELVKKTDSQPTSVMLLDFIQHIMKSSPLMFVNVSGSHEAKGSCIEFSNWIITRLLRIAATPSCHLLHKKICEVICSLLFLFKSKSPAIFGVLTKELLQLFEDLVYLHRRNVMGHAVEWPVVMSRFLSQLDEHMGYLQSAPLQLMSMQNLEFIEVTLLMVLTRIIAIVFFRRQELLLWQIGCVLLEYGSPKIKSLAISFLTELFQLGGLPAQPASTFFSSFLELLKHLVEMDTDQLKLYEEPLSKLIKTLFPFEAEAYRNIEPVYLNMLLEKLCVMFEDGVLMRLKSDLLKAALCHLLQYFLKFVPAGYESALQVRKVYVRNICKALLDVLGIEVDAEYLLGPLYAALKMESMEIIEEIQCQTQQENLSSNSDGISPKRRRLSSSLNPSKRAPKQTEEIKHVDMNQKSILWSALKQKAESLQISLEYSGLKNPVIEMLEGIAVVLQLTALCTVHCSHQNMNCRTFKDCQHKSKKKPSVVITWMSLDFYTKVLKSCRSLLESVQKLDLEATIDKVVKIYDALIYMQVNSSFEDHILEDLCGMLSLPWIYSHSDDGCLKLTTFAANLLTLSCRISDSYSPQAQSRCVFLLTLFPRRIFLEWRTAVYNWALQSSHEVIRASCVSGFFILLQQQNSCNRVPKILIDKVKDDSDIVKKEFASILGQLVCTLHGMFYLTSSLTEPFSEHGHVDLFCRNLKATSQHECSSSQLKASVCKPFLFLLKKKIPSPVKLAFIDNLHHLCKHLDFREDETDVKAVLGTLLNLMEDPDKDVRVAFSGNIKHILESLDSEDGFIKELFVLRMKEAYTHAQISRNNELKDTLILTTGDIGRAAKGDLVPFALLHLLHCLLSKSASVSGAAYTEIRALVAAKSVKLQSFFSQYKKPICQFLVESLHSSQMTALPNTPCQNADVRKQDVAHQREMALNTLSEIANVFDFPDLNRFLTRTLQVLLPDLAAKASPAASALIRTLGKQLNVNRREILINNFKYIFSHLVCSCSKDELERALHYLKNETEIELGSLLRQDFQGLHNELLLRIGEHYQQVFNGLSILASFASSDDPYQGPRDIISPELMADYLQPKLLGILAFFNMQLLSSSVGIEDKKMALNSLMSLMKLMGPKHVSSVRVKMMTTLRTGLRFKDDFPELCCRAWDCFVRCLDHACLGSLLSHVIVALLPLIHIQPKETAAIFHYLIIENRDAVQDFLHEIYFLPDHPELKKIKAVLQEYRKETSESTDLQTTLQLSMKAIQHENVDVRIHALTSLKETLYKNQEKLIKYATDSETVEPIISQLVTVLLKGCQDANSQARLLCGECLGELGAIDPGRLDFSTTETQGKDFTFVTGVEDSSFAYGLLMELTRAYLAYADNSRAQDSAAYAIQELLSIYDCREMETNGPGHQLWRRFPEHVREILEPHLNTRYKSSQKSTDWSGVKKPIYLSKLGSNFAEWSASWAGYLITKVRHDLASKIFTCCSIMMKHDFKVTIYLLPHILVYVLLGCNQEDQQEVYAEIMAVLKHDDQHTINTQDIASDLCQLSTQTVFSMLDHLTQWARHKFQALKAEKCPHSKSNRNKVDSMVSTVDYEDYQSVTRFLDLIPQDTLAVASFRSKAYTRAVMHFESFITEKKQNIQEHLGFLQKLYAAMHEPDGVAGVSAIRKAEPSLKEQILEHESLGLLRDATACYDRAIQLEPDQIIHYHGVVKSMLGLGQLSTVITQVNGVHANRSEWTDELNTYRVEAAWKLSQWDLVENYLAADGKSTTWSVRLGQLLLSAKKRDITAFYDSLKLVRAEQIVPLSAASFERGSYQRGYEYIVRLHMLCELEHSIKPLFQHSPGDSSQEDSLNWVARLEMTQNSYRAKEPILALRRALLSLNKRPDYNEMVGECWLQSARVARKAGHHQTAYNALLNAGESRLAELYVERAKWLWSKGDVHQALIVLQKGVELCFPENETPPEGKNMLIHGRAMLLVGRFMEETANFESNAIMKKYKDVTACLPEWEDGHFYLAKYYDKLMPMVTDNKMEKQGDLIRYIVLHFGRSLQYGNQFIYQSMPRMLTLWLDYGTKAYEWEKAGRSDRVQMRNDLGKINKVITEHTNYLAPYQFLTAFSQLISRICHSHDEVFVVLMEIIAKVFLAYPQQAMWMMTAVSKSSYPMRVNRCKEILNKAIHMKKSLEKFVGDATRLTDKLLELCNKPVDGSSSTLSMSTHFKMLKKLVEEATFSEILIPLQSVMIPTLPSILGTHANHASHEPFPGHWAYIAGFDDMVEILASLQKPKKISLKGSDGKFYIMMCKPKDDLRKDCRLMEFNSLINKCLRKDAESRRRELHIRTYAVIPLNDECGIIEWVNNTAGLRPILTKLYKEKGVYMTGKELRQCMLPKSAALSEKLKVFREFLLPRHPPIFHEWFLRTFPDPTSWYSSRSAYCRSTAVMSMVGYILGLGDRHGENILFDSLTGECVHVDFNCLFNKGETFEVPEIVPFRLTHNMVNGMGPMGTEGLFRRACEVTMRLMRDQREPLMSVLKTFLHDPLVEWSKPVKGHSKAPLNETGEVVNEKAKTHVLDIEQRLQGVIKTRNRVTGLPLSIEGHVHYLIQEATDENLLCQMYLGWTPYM
Chain of Receptor-interacting serine/threonine-protein kinase 3 (Q9Y572 whole entry): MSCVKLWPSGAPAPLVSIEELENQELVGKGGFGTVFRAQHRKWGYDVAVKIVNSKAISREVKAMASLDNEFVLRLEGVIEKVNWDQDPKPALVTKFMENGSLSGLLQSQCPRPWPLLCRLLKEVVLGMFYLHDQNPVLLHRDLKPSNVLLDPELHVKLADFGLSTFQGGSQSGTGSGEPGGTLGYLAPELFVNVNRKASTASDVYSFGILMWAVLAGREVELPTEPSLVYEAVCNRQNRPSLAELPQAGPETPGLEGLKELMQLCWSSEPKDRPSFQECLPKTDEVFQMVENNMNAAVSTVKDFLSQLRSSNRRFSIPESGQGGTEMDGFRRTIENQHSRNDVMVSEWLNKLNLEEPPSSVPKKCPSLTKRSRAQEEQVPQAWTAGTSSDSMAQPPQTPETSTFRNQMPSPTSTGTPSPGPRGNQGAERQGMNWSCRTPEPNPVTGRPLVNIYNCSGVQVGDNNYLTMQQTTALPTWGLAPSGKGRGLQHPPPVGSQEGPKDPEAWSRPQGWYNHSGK
Chain of G protein-coupled receptor kinase 6 (P43250 whole entry): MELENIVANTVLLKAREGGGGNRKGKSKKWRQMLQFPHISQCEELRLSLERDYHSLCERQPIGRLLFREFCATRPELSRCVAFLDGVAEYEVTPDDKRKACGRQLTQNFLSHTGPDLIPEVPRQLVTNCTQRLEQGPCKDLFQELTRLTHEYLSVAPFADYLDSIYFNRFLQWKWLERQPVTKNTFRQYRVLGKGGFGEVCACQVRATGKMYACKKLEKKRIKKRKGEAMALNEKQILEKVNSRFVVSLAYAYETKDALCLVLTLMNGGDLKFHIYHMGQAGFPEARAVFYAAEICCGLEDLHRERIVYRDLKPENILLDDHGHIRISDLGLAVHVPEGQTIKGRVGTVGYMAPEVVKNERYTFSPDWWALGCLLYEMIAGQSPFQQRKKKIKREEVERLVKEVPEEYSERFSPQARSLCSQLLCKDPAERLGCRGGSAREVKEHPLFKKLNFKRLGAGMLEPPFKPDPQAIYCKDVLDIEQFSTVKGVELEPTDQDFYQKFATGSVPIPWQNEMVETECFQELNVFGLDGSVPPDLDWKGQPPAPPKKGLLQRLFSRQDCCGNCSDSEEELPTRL
Chain of Serine/threonine-protein kinase 24 (Q9Y6E0 whole entry): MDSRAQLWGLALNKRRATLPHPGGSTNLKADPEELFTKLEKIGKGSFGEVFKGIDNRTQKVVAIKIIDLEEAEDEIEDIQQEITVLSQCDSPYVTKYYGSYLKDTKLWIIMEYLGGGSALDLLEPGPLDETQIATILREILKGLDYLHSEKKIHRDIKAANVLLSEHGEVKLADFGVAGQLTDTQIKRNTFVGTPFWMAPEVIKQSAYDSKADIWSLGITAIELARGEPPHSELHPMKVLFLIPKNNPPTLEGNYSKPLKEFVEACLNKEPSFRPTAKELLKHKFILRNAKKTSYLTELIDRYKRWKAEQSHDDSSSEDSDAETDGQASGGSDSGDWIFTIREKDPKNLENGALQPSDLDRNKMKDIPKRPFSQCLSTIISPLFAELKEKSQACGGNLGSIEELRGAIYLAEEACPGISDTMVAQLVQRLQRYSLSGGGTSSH
Chain of Cyclin-dependent kinase 17 (Q00537 whole entry): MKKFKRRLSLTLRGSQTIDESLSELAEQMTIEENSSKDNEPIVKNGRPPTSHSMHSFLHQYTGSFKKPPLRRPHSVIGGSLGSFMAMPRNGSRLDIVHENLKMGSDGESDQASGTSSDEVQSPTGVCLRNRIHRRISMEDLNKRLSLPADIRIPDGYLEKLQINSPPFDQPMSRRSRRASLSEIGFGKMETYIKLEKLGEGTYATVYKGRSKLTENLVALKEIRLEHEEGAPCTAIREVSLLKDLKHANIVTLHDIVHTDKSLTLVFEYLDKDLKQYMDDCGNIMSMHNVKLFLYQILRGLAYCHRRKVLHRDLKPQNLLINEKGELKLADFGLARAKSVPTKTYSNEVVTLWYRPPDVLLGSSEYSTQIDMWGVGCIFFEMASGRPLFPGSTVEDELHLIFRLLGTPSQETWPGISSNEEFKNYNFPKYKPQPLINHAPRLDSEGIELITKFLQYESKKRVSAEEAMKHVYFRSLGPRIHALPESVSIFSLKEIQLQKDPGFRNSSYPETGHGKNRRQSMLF

Row | Kd [1] | Kd [2] | Kd [3] | Kd [4] | Kd (UMP-CMP kinase) | Kd [5] | Kd [6] | Kd [7] | Kd [8] | Kd [9] | Kd [10] | Kd (Focal adhesion kinase 1) | Kd [11] | SMILES
1 | > 30 µM (inactive) | > 30 µM (inactive) | > 30 µM (inactive) | > 30 µM (inactive) | > 30 µM (inactive) | > 30 µM (inactive) | > 30 µM (inactive) | > 30 µM (inactive) | > 30 µM (inactive) | > 30 µM (inactive) | > 30 µM (inactive) | > 30 µM (inactive) |  | CCc1cc2c(cc1N1CCC(N3CCOCC3)CC1)C(C)(C)c1[nH]c3cc(C#N)ccc3c1C2=O [ALECTINIB]
2 | > 30 µM (inactive) | > 30 µM (inactive) | > 30 µM (inactive) | > 30 µM (inactive) | > 30 µM (inactive) | > 30 µM (inactive) | > 30 µM (inactive) |  | > 30 µM (inactive) | > 30 µM (inactive) | > 30 µM (inactive) | > 30 µM (inactive) | > 30 µM (inactive) | S=C(NCc1ccc2c(c1)OCO2)N1CCN(c2ncnc3c2oc2ccccc23)CC1 [AMUVATINIB]
3 | > 30 µM (inactive) | > 30 µM (inactive) | > 30 µM (inactive) | > 30 µM (inactive) | > 30 µM (inactive) | > 30 µM (inactive) |  |  | > 30 µM (inactive) | > 30 µM (inactive) | > 30 µM (inactive) | > 30 µM (inactive) |  | COc1ccc(-c2ccc3ncc4c(c3c2)n(-c2ccc(N3CCNCC3)c(C(F)(F)F)c2)c(=O)n4C)cn1 [BGT-226 FREE BASE]
4 | > 30 µM (inactive) | > 30 µM (inactive) |  |  | > 30 µM (inactive) |  |  | > 30 µM (inactive) | > 30 µM (inactive) |  | > 30 µM (inactive) |  |  | COc1cc2c(Oc3ccc4[nH]c(C)cc4c3F)ncnc2cc1OCCCN1CCCC1 [CEDIRANIB]
5 |  | 3.64 µM (active) | > 30 µM (inactive) | > 30 µM (inactive) | > 30 µM (inactive) | > 30 µM (inactive) | > 30 µM (inactive) |  | > 30 µM (inactive) | > 30 µM (inactive) | > 30 µM (inactive) | > 30 µM (inactive) |  | COc1cc2ncnc(Nc3ccc(F)c(Cl)c3)c2cc1NC(=O)/C=C/CN1CCCCC1 [DACOMITINIB ANHYDROUS]
6 | > 30 µM (inactive) | > 30 µM (inactive) | > 30 µM (inactive) | > 30 µM (inactive) | > 30 µM (inactive) | > 30 µM (inactive) | > 30 µM (inactive) | > 30 µM (inactive) | > 30 µM (inactive) | > 30 µM (inactive) |  |  | > 30 µM (inactive) | Cn1c(=O)n(-c2ccc(C(C)(C)C#N)cc2)c2c3cc(-c4cnc5ccccc5c4)ccc3ncc21 [DACTOLISIB]
7 |  | > 30 µM (inactive) | > 30 µM (inactive) | > 30 µM (inactive) | > 30 µM (inactive) | > 30 µM (inactive) |  | > 30 µM (inactive) | > 30 µM (inactive) | > 30 µM (inactive) |  | 5.4 µM (active) | > 30 µM (inactive) | COc1cc(Nc2ncc(F)c(Nc3ccc4c(n3)N(COP(=O)(O)O)C(=O)C(C)(C)O4)n2)cc(OC)c1OC [FOSTAMATINIB]
8 | > 30 µM (inactive) | > 30 µM (inactive) |  | > 30 µM (inactive) | > 30 µM (inactive) | > 30 µM (inactive) | > 30 µM (inactive) |  | > 30 µM (inactive) | 4.91 µM (active) | > 30 µM (inactive) | > 30 µM (inactive) | > 30 µM (inactive) | COc1cccc2cc(-c3nc([C@H]4CC[C@H](C(=O)O)CC4)n4ncnc(N)c34)[nH]c12 [OSI-027]
9 |  | > 30 µM (inactive) | > 30 µM (inactive) | > 30 µM (inactive) | > 30 µM (inactive) | > 30 µM (inactive) | > 30 µM (inactive) | > 30 µM (inactive) | > 30 µM (inactive) | > 30 µM (inactive) | > 30 µM (inactive) | > 30 µM (inactive) |  | CNC(=O)c1cccc(-c2ccc3c(N4CCOC[C@@H]4C)nc(N4CCOC[C@@H]4C)nc3n2)c1 [VISTUSERTIB]
10 | > 30 µM (inactive) | > 30 µM (inactive) | > 30 µM (inactive) |  | > 30 µM (inactive) | > 30 µM (inactive) | > 30 µM (inactive) | > 30 µM (inactive) | > 30 µM (inactive) | > 30 µM (inactive) |  | > 30 µM (inactive) | > 30 µM (inactive) | NC(=O)c1ccc(N(C(N)=O)c2c(F)cccc2F)nc1-c1ccc(F)cc1F [VX-702]
11 | > 30 µM (inactive) | > 30 µM (inactive) | > 30 µM (inactive) | > 30 µM (inactive) | > 30 µM (inactive) | > 30 µM (inactive) | > 30 µM (inactive) | > 30 µM (inactive) | > 30 µM (inactive) | > 30 µM (inactive) |  | > 30 µM (inactive) | > 30 µM (inactive) | COc1cc2ncnc(Nc3ccc(O)cc3)c2cc1OC [WHI-P131]

Row | SMILES | Kd [1] | Kd [2] | Kd [3] | Kd [4] | Kd (UMP-CMP kinase) | Kd [5] | Kd [6] | Kd [7] | Kd [8] | Kd [9] | Kd [10] | Kd (Focal adhesion kinase 1) | Kd [11]
12 | C=CCn1c(=O)c2cnc(Nc3ccc(N4CCN(C)CC4)cc3)nc2n1-c1cccc(C(C)(C)O)n1 [ADAVOSERTIB] | > 30 µM (inactive) | > 30 µM (inactive) | > 30 µM (inactive) | > 30 µM (inactive) | > 30 µM (inactive) | > 30 µM (inactive) | > 30 µM (inactive) | > 30 µM (inactive) | > 30 µM (inactive) | > 30 µM (inactive) |  |  | 
13 | CC1(COc2ccc3c(c2)ncn3-c2ccc3cccc(N4CCC(N)CC4)c3n2)COC1 [CRENOLANIB] | > 30 µM (inactive) | > 30 µM (inactive) | > 30 µM (inactive) | > 30 µM (inactive) | 0.003 µM (active) | > 30 µM (inactive) |  |  | > 30 µM (inactive) |  | > 30 µM (inactive) | > 30 µM (inactive) | 0.057 µM (active)
14 | O=S(=O)(c1cccc2cnccc12)N1CCCNCC1 [FASUDIL] | > 30 µM (inactive) | > 30 µM (inactive) | > 30 µM (inactive) | > 30 µM (inactive) | > 30 µM (inactive) |  | > 30 µM (inactive) |  |  | > 30 µM (inactive) | > 30 µM (inactive) |  | 
15 | C=CC(=O)Nc1cc(Nc2nccc(-c3cn(C)c4ccccc34)n2)c(OC)cc1N(C)CCN(C)C [OSIMERTINIB] | > 30 µM (inactive) | > 30 µM (inactive) | > 30 µM (inactive) | > 30 µM (inactive) | > 30 µM (inactive) | > 30 µM (inactive) | > 30 µM (inactive) |  | > 30 µM (inactive) | > 30 µM (inactive) | > 30 µM (inactive) | > 30 µM (inactive) | 
16 | COCCN1CCN(Cc2ccc(-c3n[nH]c4c3C(=O)c3c(NC(=O)NN5CCOCC5)cccc3-4)cc2)CC1 [RGB-286638] | > 30 µM (inactive) | > 30 µM (inactive) |  | > 30 µM (inactive) | > 30 µM (inactive) | 1.09 µM (active) | > 30 µM (inactive) | > 30 µM (inactive) | > 30 µM (inactive) | 0.535 µM (active) |  | > 30 µM (inactive) | 
